Measurements reported in article PMC7158045 (BMC Plant Biology, 2020).
Where a name gives a salt, the structure may show the parent alone.

How the values were obtained:
Assay in all cases: biochemical
ZmDRIK1-K217-P492 = target: T1, ZmDRIK1-K217-P492 (Zea mays, UniProt C0P4K9); conditions: read-out: dTm B, sheet ZmDRIK1-K217-P492;; DSF, Boltzmann fit, 0.1% DMSO
T1 construct: kinase domain, K217-P492
T1 sequence (C0P4K9 1-514): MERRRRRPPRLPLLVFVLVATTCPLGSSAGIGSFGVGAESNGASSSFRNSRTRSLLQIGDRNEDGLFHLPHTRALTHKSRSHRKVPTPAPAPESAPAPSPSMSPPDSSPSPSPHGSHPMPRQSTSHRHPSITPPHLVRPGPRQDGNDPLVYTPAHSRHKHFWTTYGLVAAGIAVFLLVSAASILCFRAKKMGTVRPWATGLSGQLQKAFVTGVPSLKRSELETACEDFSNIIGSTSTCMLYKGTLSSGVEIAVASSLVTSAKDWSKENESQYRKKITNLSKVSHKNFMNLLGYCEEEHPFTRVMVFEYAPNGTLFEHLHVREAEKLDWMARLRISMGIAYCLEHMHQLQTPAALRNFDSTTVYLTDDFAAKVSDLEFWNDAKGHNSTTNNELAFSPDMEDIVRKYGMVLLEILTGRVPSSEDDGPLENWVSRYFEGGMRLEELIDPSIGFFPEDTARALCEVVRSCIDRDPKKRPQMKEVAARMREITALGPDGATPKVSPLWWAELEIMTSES

ZmDRIK1-R187-P492 = target: T2, ZmDRIK1-R187-P492 (Zea mays, UniProt C0P4K9); conditions: read-out: dTm B, DSF, Boltzmann fit, 0.1% DMSO
T2 construct: kinase domain, R187-P492
T2 sequence (C0P4K9 1-514): T1 sequence (C0P4K9 1-514)

ZmDRIK1-K217-S514 = target: T3, ZmDRIK1-K217-S514 (Zea mays, UniProt C0P4K9); conditions: read-out: dTm B, sheet ZmDRIK1-K217-S514;; DSF, Boltzmann fit, 0.1% DMSO
T3 construct: kinase domain, K217-S514
T3 sequence (C0P4K9 1-514): T1 sequence (C0P4K9 1-514)

[1] = target: T4, ZmDRIK1 (DROUGHT RESPONSIVE INACTIVE KINASE 1), kinase domain (Zea mays, UniProt C0P4K9); conditions: read-out: dTm B, sheet ZmDRIK1-R187-S514;; DSF, Boltzmann fit, 0.1% DMSO
T4 construct: gene ZEAMMB73_Zm00001d028770; ZmDRIK1-KD R187-S514 (kinase domain)
T4 sequence (C0P4K9 187-514): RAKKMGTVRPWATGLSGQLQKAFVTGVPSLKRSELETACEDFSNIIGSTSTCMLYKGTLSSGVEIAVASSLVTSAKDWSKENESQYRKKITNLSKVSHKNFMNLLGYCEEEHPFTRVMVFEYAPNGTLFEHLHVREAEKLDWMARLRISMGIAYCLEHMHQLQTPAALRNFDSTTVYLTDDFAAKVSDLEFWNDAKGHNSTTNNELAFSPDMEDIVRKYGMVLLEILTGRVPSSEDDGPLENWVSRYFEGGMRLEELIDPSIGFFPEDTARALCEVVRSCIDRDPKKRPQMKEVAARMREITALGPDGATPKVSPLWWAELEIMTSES

Compound	ΔTm at 10 µM (ZmDRIK1-K217-P492)	ΔTm at 10 µM (ZmDRIK1-R187-P492)	ΔTm at 10 µM (ZmDRIK1-K217-S514)	ΔTm at 10 µM [1]
COc1ccc(S(=O)(=O)N(C(C)=O)c2ccccc2/C=C/c2cc[n+]([O-])cc2)cc1 [HMN-214]	-0.694 °C	-0.238 °C	-0.242 °C	-0.877 °C
CCCS(=O)(=O)Nc1ccc(F)c(C(=O)c2c[nH]c3ncc(-c4ccc(Cl)cc4)cc23)c1F [Vemurafenib (PLX4032)]	-0.0662 °C	-7.37 °C	-0.89 °C	-21.5 °C
NC1(C(=O)N[C@@H](CCO)c2ccc(Cl)cc2)CCN(c2ncnc3[nH]ccc23)CC1 [AZD5363]	-1.06 °C	-0.504 °C	-0.652 °C	-0.693 °C
CCN(CC)CCCCNc1ncc2cc(-c3cc(OC)cc(OC)c3)c(NC(=O)NC(C)(C)C)nc2n1 [PD173074]	-0.962 °C	-0.212 °C	-0.228 °C	-0.711 °C
O=S(=O)(c1cccc2cnccc12)N1CCCNCC1 [Fasudil (HA-1077) HCl]	-0.949 °C	-0.0771 °C	-0.253 °C	-0.908 °C
CC(=O)Nc1cccc(-n2c(=O)n(C3CC3)c(=O)c3c(Nc4ccc(I)cc4F)n(C)c(=O)c(C)c32)c1 [Trametinib (GSK1120212)]	-1.15 °C	-0.327 °C	-0.496 °C	-0.482 °C
CNc1nc(Nc2cnn([C@H]3CCN(C4COC4)C[C@@H]3F)c2Cl)ncc1C(F)(F)F [GNE-9605]	-0.685 °C	-0.334 °C	-0.718 °C	-0.953 °C
N#C/C(=C\c1ccc(O)c(O)c1)C(=O)NCc1ccccc1 [AG-490 (Tyrphostin B42)]	-0.722 °C	-0.394 °C	-0.507 °C	-1.15 °C
C=CC(=O)Nc1cccc(Nc2nc(Nc3ccc(N4CCN(C(C)=O)CC4)cc3OC)ncc2C(F)(F)F)c1 [CO-1686 (AVL-301)]	-0.85 °C	-0.278 °C	-0.448 °C	-0.884 °C
N#CC(=C(/N)Sc1ccccc1N)/C(C#N)=C(\N)Sc1ccccc1N [U0126-EtOH]	-1.09 °C	-0.611 °C	-0.582 °C	-1.26 °C
N[C@@H]1CCCN(c2c(/C=C3\SC(=O)NC3=O)cccc2-c2ccccc2)C1 [AZD1208]	-0.752 °C	-0.181 °C	-0.249 °C	-0.564 °C
O=c1c(O)c(-c2ccc(O)c(O)c2)oc2cc(O)cc(O)c12 [Quercetin]	-1.11 °C	-0.357 °C	-0.0338 °C	-0.63 °C
CS(=O)(=O)c1cccc(CNc2nc(Nc3ccc4c(c3)CCC(=O)N4)ncc2C(F)(F)F)c1 [PF-573228]	-1.45 °C	0.148 °C	0.0316 °C	-0.638 °C
O=C(NCc1ccccc1)c1csc(Nc2ccncn2)n1 [Thiazovivin]	-0.879 °C	-0.171 °C	-0.368 °C	-0.845 °C
Cn1cnc2c(F)c(Nc3ccc(Br)cc3F)c(C(=O)NOCCO)cc21 [MEK162 (ARRY-162)]	-1.3 °C	-0.189 °C	-0.461 °C	-0.978 °C
O=C(O)c1ccc(Nc2ncc3c(n2)-c2ccc(Cl)cc2C(c2c(F)cccc2F)=NC3)cc1 [MLN8054]	-1.36 °C	-0.341 °C	-0.583 °C	-0.958 °C
COc1cc2ncnc(Oc3cccc(NC(=O)Nc4cc(C(C)(C)C(F)(F)F)on4)c3)c2cc1OC [CEP-32496]	-0.207 °C	-0.956 °C	-0.917 °C	-0.0221 °C
O=c1cc(N2CCOCC2)oc2c(-c3cccc4c3sc3ccccc34)cccc12 [NU7441 (KU-57788)]	-1.94 °C	-0.309 °C	-1.59 °C	-0.875 °C
Fc1cc(-c2cccc3ncc(-c4cnn(C5CCNCC5)c4)nc23)cc(F)c1CN1CCOCC1 [NVP-BSK805 2HCl]	-0.999 °C	-0.0846 °C	-0.602 °C	-0.913 °C
C[C@@H](N)[C@H]1CC[C@H](C(=O)Nc2ccncc2)CC1 [Y-27632 2HCl]	-1.25 °C	-0.155 °C	-0.475 °C	-0.584 °C
CNC(=O)c1cc(Oc2ccc(NC(=O)Nc3ccc(Cl)c(C(F)(F)F)c3)c(F)c2)ccn1 [Regorafenib (BAY 73-4506)]	-8.99 °C	-5.88 °C	-0.13 °C	-15.3 °C
Cc1ccc(-n2nc(C(C)(C)C)cc2NC(=O)Nc2ccc(OCCN3CCOCC3)c3ccccc23)cc1 [BIRB 796 (Doramapimod)]	-0.873 °C	-0.248 °C	-0.405 °C	0.000298 °C
N#C/C(=C(/N)Sc1ccc(N)cc1)c1ccccc1C(F)(F)F [SL-327]	-0.701 °C	-0.157 °C	-0.356 °C	-1.09 °C
COc1cc2c(Nc3ccc(NC(=O)c4ccccc4)cc3)ncnc2cc1OCCCN1CCOCC1 [ZM 447439]	-0.314 °C	0.124 °C	0.111 °C	-0.965 °C
Cc1cnc(Nc2ccc(N3CCN(C)CC3)cc2)nc1Nc1cccc(S(=O)(=O)NC(C)(C)C)c1 [TG101209]	-0.984 °C	-0.311 °C	-0.317 °C	-0.897 °C
Cc1c(F)cc(C(=O)NC2CC2)cc1-c1ccc(C(=O)NCC(C)(C)C)cn1 [Losmapimod (GW856553X)]	-0.577 °C	-0.242 °C	-0.464 °C	-0.594 °C
COc1cc2c(N3CCN(C(=O)Nc4ccc(OC(C)C)cc4)CC3)ncnc2cc1OCCCN1CCCCC1 [Tandutinib (MLN518)]	-0.971 °C	-0.158 °C	-0.303 °C	-0.869 °C
CCOC(=O)c1cnc2ccc(-c3cncc(NS(=O)(=O)c4ccccc4)c3)cn12 [HS-173]	-0.326 °C	-0.247 °C	-0.361 °C	-0.566 °C
CCN(CCO)CCCOc1ccc2c(Nc3cc(CC(=O)Nc4cccc(F)c4)[nH]n3)ncnc2c1 [Barasertib (AZD1152-HQPA)]	-0.927 °C	-0.129 °C	-0.253 °C	-1.11 °C
Cc1cc2c(F)c(Oc3ncnn4cc(OC[C@@H](C)O)c(C)c34)ccc2[nH]1 [Brivanib (BMS-540215)]	-0.796 °C	-0.365 °C	-0.0833 °C	-1.28 °C
